{"source": "ChEMBL document CHEMBL5291721", "about": "“A preclinical secondary pharmacology resource illuminates target-adverse drug reaction associations of marketed drugs” (Nat Commun, 2023); note: assay procedure not described here", "key": {"[1]": {"target": "T1, Muscarinic acetylcholine receptor M1 (Homo sapiens, UniProt P11229)", "T1 sequence (P11229 whole entry)": "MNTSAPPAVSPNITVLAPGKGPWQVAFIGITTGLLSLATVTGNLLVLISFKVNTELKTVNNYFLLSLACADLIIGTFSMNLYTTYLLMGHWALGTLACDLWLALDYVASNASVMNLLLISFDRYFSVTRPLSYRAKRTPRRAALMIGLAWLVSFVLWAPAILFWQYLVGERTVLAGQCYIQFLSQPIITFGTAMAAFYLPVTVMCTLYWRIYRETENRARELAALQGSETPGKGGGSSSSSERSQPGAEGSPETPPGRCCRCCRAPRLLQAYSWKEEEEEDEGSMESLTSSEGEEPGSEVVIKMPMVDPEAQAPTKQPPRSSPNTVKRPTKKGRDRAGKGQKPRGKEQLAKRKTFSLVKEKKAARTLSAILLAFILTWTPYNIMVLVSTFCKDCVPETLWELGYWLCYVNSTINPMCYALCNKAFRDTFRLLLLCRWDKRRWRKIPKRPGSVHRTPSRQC", "format": "functional, cell-based"}, "[2]": {"target": "T1, Muscarinic acetylcholine receptor M1", "format": "functional, cell-based", "remark": "listed apart in the source"}, "[3]": {"target": "5-hydroxytryptamine receptor 5A (Homo sapiens, UniProt P47898)", "sequence (P47898 whole entry)": "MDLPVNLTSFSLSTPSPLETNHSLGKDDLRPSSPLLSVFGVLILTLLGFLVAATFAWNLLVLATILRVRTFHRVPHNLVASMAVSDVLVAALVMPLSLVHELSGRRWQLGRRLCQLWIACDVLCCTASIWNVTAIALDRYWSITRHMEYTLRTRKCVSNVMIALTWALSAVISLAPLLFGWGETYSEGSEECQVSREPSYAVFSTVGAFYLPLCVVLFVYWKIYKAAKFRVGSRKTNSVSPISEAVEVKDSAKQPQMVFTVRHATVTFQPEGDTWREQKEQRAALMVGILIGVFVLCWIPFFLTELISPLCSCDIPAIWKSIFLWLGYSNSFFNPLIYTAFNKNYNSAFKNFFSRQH"}, "[4]": {"target": "5-hydroxytryptamine receptor 2B (Homo sapiens, UniProt P41595)", "sequence (P41595 whole entry)": "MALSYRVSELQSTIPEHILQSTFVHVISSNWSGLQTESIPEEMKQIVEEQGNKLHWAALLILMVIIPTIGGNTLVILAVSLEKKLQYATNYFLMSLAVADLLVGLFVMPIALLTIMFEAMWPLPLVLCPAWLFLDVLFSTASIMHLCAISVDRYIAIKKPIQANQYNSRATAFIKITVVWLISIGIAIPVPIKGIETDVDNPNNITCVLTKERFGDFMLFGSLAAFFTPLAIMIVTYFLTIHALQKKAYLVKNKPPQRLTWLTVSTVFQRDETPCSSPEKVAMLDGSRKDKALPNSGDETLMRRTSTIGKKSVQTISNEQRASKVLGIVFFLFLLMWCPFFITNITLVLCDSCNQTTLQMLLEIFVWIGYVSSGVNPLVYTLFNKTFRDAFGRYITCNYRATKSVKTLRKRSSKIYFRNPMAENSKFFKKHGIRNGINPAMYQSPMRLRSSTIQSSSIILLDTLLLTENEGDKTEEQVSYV"}, "[5]": {"target": "Hydroxycarboxylic acid receptor 2 (Homo sapiens, UniProt Q8TDS4)", "sequence (Q8TDS4 whole entry)": "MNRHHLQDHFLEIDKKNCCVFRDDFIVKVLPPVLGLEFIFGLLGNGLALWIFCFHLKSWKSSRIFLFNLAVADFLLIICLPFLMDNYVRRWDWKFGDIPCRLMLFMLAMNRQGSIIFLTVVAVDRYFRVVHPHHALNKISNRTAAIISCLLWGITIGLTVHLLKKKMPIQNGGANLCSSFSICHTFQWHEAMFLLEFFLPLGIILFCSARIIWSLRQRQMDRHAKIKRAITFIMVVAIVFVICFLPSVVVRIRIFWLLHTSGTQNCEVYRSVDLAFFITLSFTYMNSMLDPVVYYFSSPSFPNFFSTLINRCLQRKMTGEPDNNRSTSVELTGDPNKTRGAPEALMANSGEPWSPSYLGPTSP"}, "D(1A) dopamine receptor [6]": {"target": "T2, D(1A) dopamine receptor (Homo sapiens, UniProt P21728)", "T2 sequence (P21728 whole entry)": "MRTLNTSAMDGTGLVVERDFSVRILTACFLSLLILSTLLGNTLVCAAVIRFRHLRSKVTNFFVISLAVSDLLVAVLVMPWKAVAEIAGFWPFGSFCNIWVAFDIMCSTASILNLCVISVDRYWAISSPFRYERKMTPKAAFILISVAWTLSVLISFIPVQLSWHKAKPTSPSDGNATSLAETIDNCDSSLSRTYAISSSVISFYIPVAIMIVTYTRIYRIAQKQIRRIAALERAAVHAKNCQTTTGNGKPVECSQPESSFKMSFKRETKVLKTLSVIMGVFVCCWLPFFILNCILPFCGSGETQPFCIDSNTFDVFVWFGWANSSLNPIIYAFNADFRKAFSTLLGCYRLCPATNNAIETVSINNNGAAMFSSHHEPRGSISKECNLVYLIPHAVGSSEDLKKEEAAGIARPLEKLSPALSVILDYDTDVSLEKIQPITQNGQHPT", "format": "functional, cell-based"}, "D(1A) dopamine receptor [7]": {"target": "T2, D(1A) dopamine receptor"}, "[8]": {"target": "Voltage-dependent L-type calcium channel subunit alpha-1C (Homo sapiens, UniProt Q13936)", "sequence (Q13936 whole entry)": "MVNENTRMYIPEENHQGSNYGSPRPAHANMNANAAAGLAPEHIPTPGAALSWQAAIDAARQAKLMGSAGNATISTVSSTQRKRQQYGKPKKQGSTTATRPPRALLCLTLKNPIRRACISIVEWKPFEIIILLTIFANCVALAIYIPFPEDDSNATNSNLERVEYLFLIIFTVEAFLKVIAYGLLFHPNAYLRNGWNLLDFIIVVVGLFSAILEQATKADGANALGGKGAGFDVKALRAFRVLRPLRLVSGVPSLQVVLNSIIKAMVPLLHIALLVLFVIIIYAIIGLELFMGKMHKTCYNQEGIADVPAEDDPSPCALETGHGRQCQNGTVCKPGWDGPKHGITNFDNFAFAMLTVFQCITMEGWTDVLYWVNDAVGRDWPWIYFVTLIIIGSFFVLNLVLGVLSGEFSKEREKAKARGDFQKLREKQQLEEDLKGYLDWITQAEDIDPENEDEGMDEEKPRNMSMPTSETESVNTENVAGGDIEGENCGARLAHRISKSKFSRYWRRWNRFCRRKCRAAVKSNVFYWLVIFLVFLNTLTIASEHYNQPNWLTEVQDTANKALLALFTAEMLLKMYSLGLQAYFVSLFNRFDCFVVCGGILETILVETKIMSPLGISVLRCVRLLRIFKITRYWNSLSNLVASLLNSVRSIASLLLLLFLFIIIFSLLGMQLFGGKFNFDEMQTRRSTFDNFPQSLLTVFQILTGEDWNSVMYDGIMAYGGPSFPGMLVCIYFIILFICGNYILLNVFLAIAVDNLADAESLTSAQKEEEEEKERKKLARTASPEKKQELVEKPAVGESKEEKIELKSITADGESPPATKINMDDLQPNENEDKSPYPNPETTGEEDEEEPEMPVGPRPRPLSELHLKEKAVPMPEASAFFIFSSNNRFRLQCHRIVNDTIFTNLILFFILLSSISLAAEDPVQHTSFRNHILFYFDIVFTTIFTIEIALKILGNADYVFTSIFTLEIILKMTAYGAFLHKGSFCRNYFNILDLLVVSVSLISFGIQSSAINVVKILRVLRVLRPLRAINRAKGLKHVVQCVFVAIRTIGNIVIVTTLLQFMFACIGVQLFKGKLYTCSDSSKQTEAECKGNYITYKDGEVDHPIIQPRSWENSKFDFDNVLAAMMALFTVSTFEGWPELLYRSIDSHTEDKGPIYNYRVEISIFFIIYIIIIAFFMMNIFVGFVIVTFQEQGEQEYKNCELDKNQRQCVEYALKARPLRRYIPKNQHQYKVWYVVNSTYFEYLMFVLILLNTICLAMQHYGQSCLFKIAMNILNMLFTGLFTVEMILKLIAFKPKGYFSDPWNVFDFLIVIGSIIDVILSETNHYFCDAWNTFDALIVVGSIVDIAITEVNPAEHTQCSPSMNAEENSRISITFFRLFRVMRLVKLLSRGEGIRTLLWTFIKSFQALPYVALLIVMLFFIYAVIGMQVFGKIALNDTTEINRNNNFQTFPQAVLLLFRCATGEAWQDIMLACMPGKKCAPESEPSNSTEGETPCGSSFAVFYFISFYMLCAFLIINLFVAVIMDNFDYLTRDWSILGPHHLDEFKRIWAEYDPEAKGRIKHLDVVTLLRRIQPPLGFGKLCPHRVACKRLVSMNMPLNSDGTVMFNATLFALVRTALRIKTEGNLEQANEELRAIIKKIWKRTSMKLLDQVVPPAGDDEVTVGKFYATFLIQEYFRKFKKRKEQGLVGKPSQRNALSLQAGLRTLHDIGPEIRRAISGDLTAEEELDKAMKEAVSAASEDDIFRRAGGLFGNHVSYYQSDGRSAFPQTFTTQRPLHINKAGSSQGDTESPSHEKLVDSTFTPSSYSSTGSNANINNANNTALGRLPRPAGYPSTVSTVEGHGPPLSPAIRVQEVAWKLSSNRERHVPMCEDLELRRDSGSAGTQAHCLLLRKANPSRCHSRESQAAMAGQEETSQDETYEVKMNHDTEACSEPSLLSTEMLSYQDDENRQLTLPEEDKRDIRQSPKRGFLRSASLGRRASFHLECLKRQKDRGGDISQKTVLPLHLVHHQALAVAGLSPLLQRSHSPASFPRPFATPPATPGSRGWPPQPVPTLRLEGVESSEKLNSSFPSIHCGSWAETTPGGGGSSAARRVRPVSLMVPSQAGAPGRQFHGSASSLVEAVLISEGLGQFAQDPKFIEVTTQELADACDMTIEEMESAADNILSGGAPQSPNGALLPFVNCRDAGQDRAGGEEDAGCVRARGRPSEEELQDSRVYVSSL", "format": "functional, cell-based"}, "[9]": {"target": "Epidermal growth factor receptor (Homo sapiens, UniProt P00533)", "sequence (P00533 whole entry)": "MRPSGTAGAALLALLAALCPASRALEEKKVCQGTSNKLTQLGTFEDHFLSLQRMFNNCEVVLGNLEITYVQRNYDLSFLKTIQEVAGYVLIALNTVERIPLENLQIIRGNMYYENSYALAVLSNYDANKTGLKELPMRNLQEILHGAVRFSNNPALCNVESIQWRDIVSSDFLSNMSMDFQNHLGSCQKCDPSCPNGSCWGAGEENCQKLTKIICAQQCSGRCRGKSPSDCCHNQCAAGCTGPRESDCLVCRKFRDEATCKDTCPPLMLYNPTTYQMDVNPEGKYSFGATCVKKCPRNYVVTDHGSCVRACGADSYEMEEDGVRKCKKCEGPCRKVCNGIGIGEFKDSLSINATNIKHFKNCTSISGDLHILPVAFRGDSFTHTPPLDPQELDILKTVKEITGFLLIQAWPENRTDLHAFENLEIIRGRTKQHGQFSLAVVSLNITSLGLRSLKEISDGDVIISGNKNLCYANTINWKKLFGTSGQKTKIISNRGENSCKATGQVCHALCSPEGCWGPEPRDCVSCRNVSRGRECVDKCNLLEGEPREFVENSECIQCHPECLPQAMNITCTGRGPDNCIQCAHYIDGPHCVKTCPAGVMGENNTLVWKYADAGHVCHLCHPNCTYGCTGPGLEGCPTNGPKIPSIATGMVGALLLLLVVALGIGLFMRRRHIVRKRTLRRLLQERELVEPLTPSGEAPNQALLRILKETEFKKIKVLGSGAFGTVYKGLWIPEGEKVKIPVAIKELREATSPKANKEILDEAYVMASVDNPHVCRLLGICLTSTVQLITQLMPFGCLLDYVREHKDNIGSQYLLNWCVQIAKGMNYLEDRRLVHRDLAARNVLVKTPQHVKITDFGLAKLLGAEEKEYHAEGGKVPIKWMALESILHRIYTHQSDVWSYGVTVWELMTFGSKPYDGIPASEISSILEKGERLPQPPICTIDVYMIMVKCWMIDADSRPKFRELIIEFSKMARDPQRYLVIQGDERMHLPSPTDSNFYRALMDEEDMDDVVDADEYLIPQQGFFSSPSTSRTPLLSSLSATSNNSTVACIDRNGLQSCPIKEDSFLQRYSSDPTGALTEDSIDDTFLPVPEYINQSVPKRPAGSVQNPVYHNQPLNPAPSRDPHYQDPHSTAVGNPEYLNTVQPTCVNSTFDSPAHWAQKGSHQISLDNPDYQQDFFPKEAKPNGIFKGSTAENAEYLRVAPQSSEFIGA", "format": "functional"}, "[10]": {"target": "Vascular endothelial growth factor receptor 2 (Homo sapiens, UniProt P35968)", "format": "functional"}, "Estrogen receptor [11]": {"target": "T3, Estrogen receptor (Homo sapiens, UniProt P03372)", "T3 sequence (P03372 whole entry)": "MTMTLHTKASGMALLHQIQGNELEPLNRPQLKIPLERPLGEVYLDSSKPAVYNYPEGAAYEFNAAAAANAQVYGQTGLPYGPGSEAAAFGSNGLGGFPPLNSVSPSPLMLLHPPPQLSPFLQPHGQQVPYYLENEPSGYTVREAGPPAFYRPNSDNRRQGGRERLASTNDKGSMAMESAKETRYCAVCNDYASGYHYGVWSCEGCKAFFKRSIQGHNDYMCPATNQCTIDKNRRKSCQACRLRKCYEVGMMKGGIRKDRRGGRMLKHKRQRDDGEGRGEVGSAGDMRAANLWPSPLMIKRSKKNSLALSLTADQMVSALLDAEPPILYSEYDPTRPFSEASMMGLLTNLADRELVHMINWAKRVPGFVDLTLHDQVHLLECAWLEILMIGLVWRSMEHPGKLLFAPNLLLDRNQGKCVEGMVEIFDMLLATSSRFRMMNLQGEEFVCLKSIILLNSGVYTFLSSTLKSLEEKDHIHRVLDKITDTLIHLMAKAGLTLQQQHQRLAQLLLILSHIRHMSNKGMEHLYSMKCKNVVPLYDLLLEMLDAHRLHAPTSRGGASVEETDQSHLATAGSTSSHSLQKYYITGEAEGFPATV", "format": "functional"}, "Thromboxane A2 receptor [12]": {"target": "T4, Thromboxane A2 receptor (Homo sapiens, UniProt P21731)", "T4 sequence (P21731 whole entry)": "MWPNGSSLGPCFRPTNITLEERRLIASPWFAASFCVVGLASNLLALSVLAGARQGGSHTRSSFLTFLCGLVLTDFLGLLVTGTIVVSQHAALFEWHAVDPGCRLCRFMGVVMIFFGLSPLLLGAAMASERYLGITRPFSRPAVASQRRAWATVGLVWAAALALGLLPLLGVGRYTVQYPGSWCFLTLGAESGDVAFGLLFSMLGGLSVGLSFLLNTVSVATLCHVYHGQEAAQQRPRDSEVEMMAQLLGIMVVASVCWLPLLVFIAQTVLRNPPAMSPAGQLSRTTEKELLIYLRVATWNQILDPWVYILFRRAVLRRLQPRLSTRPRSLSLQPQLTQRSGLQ", "format": "functional, cell-based"}, "Estrogen receptor [13]": {"target": "T3, Estrogen receptor", "format": "functional", "remark": "listed apart in the source"}, "Thromboxane A2 receptor [14]": {"target": "T4, Thromboxane A2 receptor", "format": "functional"}}, "data": [{"smiles": "C[N+]1(C)CCC(=C(c2ccccc2)c2ccccc2)CC1", "values": [{"measurement": "AC50", "setting": "[1]", "value": 0.12, "unit": "µM"}, {"measurement": "AC50", "setting": "[2]", "value": "> 30", "unit": "µM"}]}, {"smiles": "O=C(/C=C/c1cccc(S(=O)(=O)Nc2ccccc2)c1)NO", "note": "[BELINOSTAT]", "values": [{"measurement": "AC50", "setting": "[3]", "value": "> 10", "unit": "µM"}]}, {"smiles": "CC(Cc1cccc(C(F)(F)F)c1)NCCOC(=O)c1ccccc1", "note": "(configuration not stated) [BENFLUOREX]", "values": [{"measurement": "AC50", "setting": "[4]", "value": 0.933, "unit": "µM"}]}, {"smiles": "O=C(O)COCCN1CCN(C(c2ccccc2)c2ccc(Cl)cc2)CC1", "note": "(configuration not stated) [CETIRIZINE]", "values": [{"measurement": "AC50", "setting": "[5]", "value": "> 10", "unit": "µM"}]}, {"smiles": "CNCCc1ccc(OC(=O)C(C)C)c(OC(=O)C(C)C)c1", "note": "[IBOPAMINE]", "values": [{"measurement": "AC50", "setting": "D(1A) dopamine receptor [6]", "value": "> 30", "unit": "µM"}, {"measurement": "AC50", "setting": "D(1A) dopamine receptor [7]", "value": "> 30", "unit": "µM"}]}, {"smiles": "CN(C)CCCN1c2ccccc2CCc2ccccc21", "note": "[IMIPRAMINE]", "values": [{"measurement": "AC50", "setting": "[3]", "value": 2.26, "unit": "µM"}]}, {"smiles": "Cc1cccc(C)c1NC(=O)CC12CCCN1CCC2", "note": "[PILSICAINIDE]", "values": [{"measurement": "AC50", "setting": "[8]", "value": "> 50", "unit": "µM"}]}, {"smiles": "CC(C)c1cccc(C(C)C)c1O", "note": "[PROPOFOL]", "values": [{"measurement": "AC50", "setting": "D(1A) dopamine receptor [6]", "value": "> 30", "unit": "µM"}, {"measurement": "AC50", "setting": "[9]", "value": "> 30", "unit": "µM"}, {"measurement": "AC50", "setting": "[10]", "value": "> 30", "unit": "µM"}, {"measurement": "AC50", "setting": "Estrogen receptor [11]", "value": "> 30", "unit": "µM"}, {"measurement": "AC50", "setting": "Thromboxane A2 receptor [12]", "value": "> 30", "unit": "µM"}, {"measurement": "AC50", "setting": "Estrogen receptor [13]", "value": "> 30", "unit": "µM"}, {"measurement": "AC50", "setting": "Thromboxane A2 receptor [14]", "value": "> 30", "unit": "µM"}]}, {"smiles": "CN[C@@H](C)[C@@H](O)c1ccccc1", "note": "[PSEUDOEPHEDRINE]", "values": [{"measurement": "AC50", "setting": "[5]", "value": "> 10", "unit": "µM"}]}]}
